Columns and labels:
Format in all cases: biochemical
recombinant hSSAO = recombinant hSSAO (Homo sapiens (Human), UniProt Q16853); test: SSAO Activity Assay (MAO-Glo assay kit); conditions: 40 μM substrate, 30 mins pre-incubation
Protocol: (§1) The biological activities of the compounds of the present application can be assessed with methods and assays known in the art. For example, the potency of the compounds of the present application can be evaluated with an SSAO Activity Assay. Briefly, compounds of the present application can be applied to recombinant hSSAO, hMAO-A, and hMAO-B isoforms and the amine oxidase activity of the enzymes are measured after the addition and subsequent oxidation of the luminogenic substrate (e.g., with the MAO-Glo assay kit from Promega). The IC50 can be calculated, for example, by fitting the dose response curve using a 4-parameter non-linear regression routine.
(§2) Amine oxidase activity of recombinant hSSAO, hMAO-A, and hMAO-B isoforms are measured using the MAO-Glo assay kit (Promega, V1402). Ten nL test compounds (with DMSO as vehicle, 0.1% v/v for hSSAO, hMAO-A and hMAO-B) were added into assay plates by Echo, and pre-incubated with 5 μL of enzyme for 30 mins at room temperature before the addition of 5 μL of luminogenic substrate. The substrate concentration is 40 μM for human recombinant SSAO, 40 μM for human recombinant MAO-A, and 4 μM for human recombinant MAO-B. The hSSAO and hMAO-A assays were conducted in the MAO-A reaction buffer in the kit, and the MAO-B assay was conducted in the MAO-B reaction buffer. Oxidation of the substrate was conducted for 1 hr, before the addition of detecting reagent according the manufacture's protocol. The IC50 value of the tested compounds was calculated by fitting the dose response curve using a 4-parameter non-linear regression routine.

recombinant hMAO-A = recombinant hMAO-A (Homo sapiens (Human), UniProt P21397); test: MAO-A activity assay (MAO-Glo assay kit); conditions: 40 μM substrate, 30 mins pre-incubation
Chain of recombinant hMAO-A (P21397 whole entry): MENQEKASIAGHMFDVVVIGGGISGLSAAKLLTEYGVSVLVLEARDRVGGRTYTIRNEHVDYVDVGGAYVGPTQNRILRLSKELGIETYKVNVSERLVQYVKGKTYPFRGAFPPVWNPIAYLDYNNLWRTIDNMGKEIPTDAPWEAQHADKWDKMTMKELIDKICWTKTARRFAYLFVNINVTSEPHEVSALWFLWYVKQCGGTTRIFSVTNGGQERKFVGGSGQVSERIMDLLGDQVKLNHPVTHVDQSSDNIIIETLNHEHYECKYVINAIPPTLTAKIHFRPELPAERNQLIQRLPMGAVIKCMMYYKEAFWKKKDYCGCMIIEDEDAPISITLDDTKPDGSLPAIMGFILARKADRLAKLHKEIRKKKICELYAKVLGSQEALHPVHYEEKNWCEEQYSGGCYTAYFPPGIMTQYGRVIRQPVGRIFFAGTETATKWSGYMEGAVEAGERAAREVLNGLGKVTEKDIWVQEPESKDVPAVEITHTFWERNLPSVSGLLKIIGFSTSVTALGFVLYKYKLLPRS
Protocol: as §1, §2

recombinant hMAO-B = recombinant hMAO-B (Homo sapiens (Human), UniProt P27338); test: MAO-B activity assay (MAO-Glo assay kit); conditions: 4 μM substrate, 30 mins pre-incubation
Chain of recombinant hMAO-B (P27338 whole entry): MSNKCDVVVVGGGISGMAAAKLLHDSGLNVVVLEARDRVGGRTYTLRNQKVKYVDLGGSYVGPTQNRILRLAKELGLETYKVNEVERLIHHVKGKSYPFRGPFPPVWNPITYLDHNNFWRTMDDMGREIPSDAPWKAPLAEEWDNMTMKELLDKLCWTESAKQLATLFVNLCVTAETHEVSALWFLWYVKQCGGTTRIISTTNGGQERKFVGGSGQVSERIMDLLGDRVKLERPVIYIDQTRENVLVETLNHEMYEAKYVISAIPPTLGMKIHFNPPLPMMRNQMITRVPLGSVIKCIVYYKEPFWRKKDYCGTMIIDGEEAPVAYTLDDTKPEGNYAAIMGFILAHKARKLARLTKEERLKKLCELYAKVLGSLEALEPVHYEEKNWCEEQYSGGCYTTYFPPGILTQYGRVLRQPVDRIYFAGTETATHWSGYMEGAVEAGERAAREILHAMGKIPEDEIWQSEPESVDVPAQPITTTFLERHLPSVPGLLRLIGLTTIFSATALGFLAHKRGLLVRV
Protocol: as §1, §2

Chain of recombinant hSSAO (Q16853 whole entry, canonical isoform): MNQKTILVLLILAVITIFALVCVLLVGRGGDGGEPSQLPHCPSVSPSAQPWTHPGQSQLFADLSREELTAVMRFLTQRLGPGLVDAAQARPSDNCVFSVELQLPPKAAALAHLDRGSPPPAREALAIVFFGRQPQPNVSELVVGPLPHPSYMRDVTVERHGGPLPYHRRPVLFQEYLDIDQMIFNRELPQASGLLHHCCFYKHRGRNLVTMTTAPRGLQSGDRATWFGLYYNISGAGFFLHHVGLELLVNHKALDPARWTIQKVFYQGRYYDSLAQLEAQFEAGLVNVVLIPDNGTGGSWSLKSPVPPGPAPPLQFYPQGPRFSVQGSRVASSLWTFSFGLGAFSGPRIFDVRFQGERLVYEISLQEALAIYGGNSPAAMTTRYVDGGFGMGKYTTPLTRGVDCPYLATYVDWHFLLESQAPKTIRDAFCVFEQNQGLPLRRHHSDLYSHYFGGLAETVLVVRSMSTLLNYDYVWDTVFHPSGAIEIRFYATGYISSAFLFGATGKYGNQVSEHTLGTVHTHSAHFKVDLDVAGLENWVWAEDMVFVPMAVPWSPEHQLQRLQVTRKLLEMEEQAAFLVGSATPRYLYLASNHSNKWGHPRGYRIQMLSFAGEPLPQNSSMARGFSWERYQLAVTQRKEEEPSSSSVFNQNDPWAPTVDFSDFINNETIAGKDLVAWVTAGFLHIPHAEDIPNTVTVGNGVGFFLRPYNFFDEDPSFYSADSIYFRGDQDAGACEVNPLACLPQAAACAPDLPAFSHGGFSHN

| Compound | IC50 (recombinant hSSAO) [µM] | IC50 (recombinant hMAO-A) [µM] | IC50 (recombinant hMAO-B) [µM] |
| --- | --- | --- | --- |
| CS(=O)(=O)N1CCC(CS(=O)(=O)c2ccc(OC/C(=C/F)CN)cc2)CC1 [Compound 38, (E)-3-fluoro-2-((4-(((1-(methylsulfonyl)piperidin-4-yl)methyl)sulfonyl)phenoxy)methyl) prop-2-en-1-amine] | < 0.02 | < 10 | < 10 |
| CC(C)(C)CC(=O)N1CCC(CS(=O)(=O)c2ccc(OC/C(=C/F)CN)cc2)CC1 [Compound 42, (E)-1-(4-(((4-((2-(aminomethyl)-3-fluoroallyl)oxy)phenyl)sulfonyl)methyl)piperidin-1-yl)-3,3-dimethylbutan-1-one] | 0.02 to 0.1 | > 30 | > 30 |
| NC/C(=C\F)COc1ccc(S(=O)(=O)CC2CCN(C(=O)C34CC5CC(CC(C5)C3)C4)CC2)cc1 [Compound 43, (E)-adamantan-1-yl(4-(((4-((2-(aminomethyl)-3-fluoroallyl)oxy)phenyl)sulfonyl)methyl)piperidin-1-yl)methanone] | 0.1 to 0.5 | 10 to 30 | 10 to 30 |
| NC/C(=C\F)COc1ccc(S(=O)(=O)Cc2cccc(C(=O)N3CCCC3)c2)cc1 [Compound 47, (E)-(3-(((4-((2-(aminomethyl)-3-fluoroallyl)oxy)phenyl)sulfonyl)methyl)phenyl)(pyrrolidin-1-yl)methanone] | 0.1 to 0.5 | > 30 | > 30 |
| NC/C(=C\F)COc1ccc(S(=O)(=O)CC2CCN(C(=O)CC3CC3)CC2)cc1 [Compound 48, (E)-1-(4-(((4-((2-(aminomethyl)-3-fluoroallyl)oxy)phenyl)sulfonyl)methyl)piperidin-1-yl)-2-cyclopropylethan-1-one] | 0.02 to 0.1 | > 30 | > 30 |
| NC/C(=C\F)COc1ccc(S(=O)(=O)CC2CCN(C(=O)C3(C(F)(F)F)CC3)CC2)cc1 [Compound 49, (E)-(4-(((4-((2-(aminomethyl)-3-fluoroallyl)oxy)phenyl)sulfonyl)methyl)piperidin-1-yl)(1-(trifluoromethyl)cyclopropyl) methanone] | 0.02 to 0.1 | > 30 | > 30 |
| NC/C(=C\F)COc1ccc(S(=O)(=O)CC2CCN(C(=O)C3CCC3)CC2)cc1 [Compound 50, (E)-(4-(((4-((2-(aminomethyl)-3-fluoroallyl)oxy)phenyl)sulfonyl)methyl)piperidin-1-yl)(cyclobutyl)methanone] | 0.02 to 0.1 | > 30 | > 30 |
| NC/C(=C\F)COc1ccc(S(=O)(=O)CC2CCN(C(=O)C3CC(F)(F)C3)CC2)cc1 [Compound 51, (E)-(4-(((4-((2-(aminomethyl)-3-fluoroallyl)oxy)phenyl)sulfonyl)methyl)piperidin-1-yl)(3,3-difluorocyclobutyl)methanone] | 0.02 to 0.1 | > 30 | > 30 |
| CC1(CS(=O)(=O)c2ccc(OC/C(=C/F)CN)cc2)CCN(C(=O)C(C)(C)C)CC1 [Compound 54, (E)-1-(4-(((4-((2-(aminomethyl)-3-fluoroallyl)oxy)phenyl)sulfonyl)methyl)-4-methylpiperidin-1-yl)-2,2-dimethylpropan-1-one] | 0.02 to 0.1 | > 30 | > 30 |
| CC1(CS(=O)(=O)c2ccc(OC/C(=C/F)CN)cc2)CCN(C(=O)C2(C(F)(F)F)CC2)CC1 [Compound 55, (E)-(4-(((4-((2-(aminomethyl)-3-fluoroallyl)oxy)phenyl)sulfonyl)methyl)-4-methylpiperidin-1-yl)(1-(trifluoromethyl)cyclopropyl) methanone] | 0.02 to 0.1 | > 30 | 10 to 30 |
| CC1(CS(=O)(=O)c2ccc(OC/C(=C/F)CN)cc2)CCN(C(=O)C2(C)CCC2)CC1 [Compound 56, (E)-(4-(((4-((2-(aminomethyl)-3-fluoroallyl)oxy)phenyl)sulfonyl)methyl)-4-methylpiperidin-1-yl)(1-methylcyclobutyl)methanone] | 0.02 to 0.1 | > 30 | 10 to 30 |
| NC/C(=C\F)COc1ccc(S(=O)(=O)CC2CCN(C(=O)C3CCCC3)CC2)c(F)c1 [Compound 58] | 0.1 to 0.5 | > 30 | > 30 |
| NC/C(=C\F)COc1ccc(S(=O)(=O)CC2CCN(C(=O)CC(F)(F)F)CC2)c(F)c1 [Compound 59, (E)-1-(4-(((4-((2-(aminomethyl)-3-fluoroallyl)oxy)-2-fluorophenyl)sulfonyl)methyl)piperidin-1-yl)-3,3,3-trifluoropropan-1-one] | 0.02 to 0.1 | > 30 | > 30 |
| NC/C(=C\F)COc1ccc(S(=O)(=O)CC23CCC(C(=O)N4CCCC4)(CC2)CC3)cc1 [Compound 61, (E)-(4-(((4-((2-(aminomethyl)-3-fluoroallyl)oxy)phenyl)sulfonyl)methyl)bicyclo[2.2.2]octan-1-yl)(pyrrolidin-1-yl)methanone] | < 0.02 | > 30 | 10 to 30 |
| NC/C(=C\F)COc1ccc(S(=O)(=O)CC23CCC(C(=O)NCC4CC4)(CC2)CC3)cc1 [Compound 66, (E)-4-(((4-((2-(aminomethyl)-3-fluoroallyl)oxy)phenyl)sulfonyl)methyl)-N-(cyclopropylmethyl)bicyclo [2.2.2]octane-1-carboxamide] | < 0.02 | > 30 | 10 to 30 |
| N#CC1(CS(=O)(=O)c2ccc(OC/C(=C/F)CN)cc2)CCOCC1 [compound 12, (E)-4-(((4-((2-(aminomethyl)-3-fluoroallyl)oxy)phenyl)sulfonyl)methyl)tetrahydro-2H-pyran-4-carbonitrile] | 0.02 to 0.1 | 10 to 30 |  |
| NC/C(=C\F)COc1ccc(S(=O)(=O)CC2CCN(C(=O)C34CC(F)(C3)C4)CC2)cc1 [compound 40, (E)-(4-(((4-((2-(aminomethyl)-3-fluoroallyl)oxy)phenyl)sulfonyl)methyl)piperidin-1-yl)(3-fluorobicyclo[1.1.1]pentan-1-yl)methanone] | 0.02 to 0.1 | 10 to 30 |  |
| CC1(CS(=O)(=O)c2ccc(OC/C(=C/F)CN)cc2)CCN(C(=O)C2(C)CC2)CC1 [compound 57, (E)-(4-(((4-((2-(aminomethyl)-3-fluoroallyl)oxy)phenyl)sulfonyl)methyl)-4-methylpiperidin-1-yl)(1-methylcyclopropyl)methanone] | 0.02 to 0.1 | 10 to 30 |  |
| CC(C)C(=O)N1CCC(CS(=O)(=O)c2ccc(OC/C(=C/F)CN)cc2)C1 (stereo not drawn) [compound 99, (E)-1-(3-(((4-((2-(aminomethyl)-3-fluoroallyl)oxy)phenyl)sulfonyl)methyl)pyrrolidin-1-yl)-2-methylpropan-1-one] | 0.02 to 0.1 | 10 to 30 |  |
| CC(C)(C)C(=O)N1CCN(CS(=O)(=O)c2ccc(OC/C(=C/F)CN)cc2)C(=O)C1 [compound 133, (E)-1-(((4-((2-(aminomethyl)-3-fluoroallyl)oxy)phenyl)sulfonyl)methyl)-4-pivaloylpiperazin-2-one] | 0.1 to 0.5 | 10 to 30 |  |
| CC1(C(=O)N2CCN(CS(=O)(=O)c3ccc(OC/C(=C/F)CN)cc3)C(=O)C2)CCC1 [compound 134, (E)-1-(((4-((2-(aminomethyl)-3-fluoroallyl)oxy)phenyl)sulfonyl)methyl)-4-(1-methylcyclobutane-1-carbonyl)piperazin-2-one] | 0.1 to 0.5 | 10 to 30 |  |
